Tests used:
[1] = Binding constant (Kd) by titration of glucose into labeled protein solution
Procedure: (§1) Binding constants were determined by titration of increasing concentrations of glucose into a protein solution with mixing following each addition of glucose. Slit settings were the same as listed above. The Kd was determined from the following relationships as adapted from Pisarchick and Thompson (1990):
where F is fluorescence intensity, Finf is fluorescence at infinity, F0 is fluorescence at zero glucose, and x is the free concentration of glucose ([Glc]free) as determined by the relationship:
where [Glc]tot and [Prot]tot are the total concentrations of glucose and protein, respectively.

[2] = Change in fluorescence of reporter-labeled GGBP mutants in solution on glucose addition; format: biochemical; conditions: GGBP-H6 NBD
Procedure: Labeled mutated maltose binding protein S337C MBP with fluorophore reporter probe NBD used herein in accordance with the procedure set forth by Cass, A. et al. (Anal. Chem. 1994, 66, 3840-3847). Fluorescence emission spectra of mutated, labeled protein was measured using an SLM Aminco fluorimeter (Ontario, Canada) with slit settings of 8 and 4 for excitation and settings of 5 and 5 on the MC250 emission monochromator to compare the ligand-binding performance of the entrapped fluorophore-labeled proteins in various matrixes to the performance of the same proteins in solution. The initial fluorescence emission intensity is defined as Io. The relative ratio of the emission intensity maxima in the presence of the protein's respective ligand (If) to the ligand's absence (Io) is defined as ΔF.
This example describes generically the labeling of binding protein with reporter probe. An aliquot of mutant GGBP containing cysteine (4.0 nmol) in PBS was treated with 2 mM dithiothreitol (5 μL, 10 nmol) for 30 min. A stock solution of N,N′-dimethyl-N-(iodoacetyl)-N′-(7-nitrobenz-2-oxa-1,3-diazol-4-yl)ethylenediamine (IANBD amide, 0.5 mg) was prepared in DMSO (100 μL, 11.9 mM) and 3.36 μL (40 nmol) was added to the protein. The reaction proceeded at room temperature for 4 h on a Dynal rotamix in the dark. The labeled protein was purified by gel filtration on a NAP-5 column (Amersham Pharmacia). The labeling rations were determined using an estimated extinction coefficient (50 mM^−1 cm^−1) for GGBP that was calculated in GeneWorks 2.45 (IntelliGenetics), ε478 (IANBD amide)=25 mM^−1cm^−1), and a measurement of O.D. for a standard solution of IANBD amide at 280 nm and 478 nm. The dye concentration in the protein was calculated as […]. The absorbance of protein at 280 nm was calculated as Aprot(280)=Atotal(280)−Adye(280), where Adye(280)=A478×(A280/A478)standard. The concentration of protein was then […].

[3] = Kd of labeled GGBP entrapped in optimized GMSC sol-gel; format: binding; conditions: protein entrapped in optimized sol-gel formulation
Procedure: as §1
Entrapment Of Binding Proteins In GMSC Sol-Gels Containing Functionalized Silicone Additives (FSA) and Polymers. This example describes the addition of polymer and organic polyol additives to optimize the GMSC sol-gels for entrapping binding proteins to both maintain and enhance their spectral properties upon ligand binding. The binding proteins were labeled with a fluorophore (as described in example 3). The protein solutions were added during the final hydrolysis/gelling step described previously to produce final concentrations of 2-4 μM protein within the sol-gel. […] Polymer additives were evaluated in amounts between 0 to about 30 wt. Functionalized silicone additives (FSA) were evaluated as additives to the GMSC sol-gels in amounts from 0 to about 0.6% mole ratio. […] Fluorescence emission was measured with a Varian Cary Eclipse scanning fluorometer with microwell plate adapter (Varian Instruments, Victoria, Australia). Excitation was at 475 nm and emission recorded from 500 to 600 nm, typically monitoring emission maximum peak fluorescence. […]

[4] = GGBP H152C entrapped in UV cross-linked SbQ-PVA hydrogel, glucose challenge; format: biochemical
Procedure: This example describes the entrapment of GGBP H152C in UV cross-linked hydrogel matrix and the effect of the matrix on the fluorescence change and binding affinity. In this experiment SbQ-PVA from Polysciences Inc. was added 100 ul of PBS buffer and mixed for one hour to mix in a rotary mixer. 80 ul of this solution was then mixed with 20 ul of labeled protein. Final protein concentration was spectroscopically determined to be 0.15 mg/ml. After mixing, aliquiots were dispensed into 96-well plates and dried in a chamber maintained at 20% humidity for 12 h followed by curing with UV light. Wells containing protein encapsulated in matrix were challenge with 2 ul of 10 mM glucose and compared to protein solution without matrix having equivalent protein loading.

[5] = ΔF of H152 GGBP-H6 NBD entrapped in sol-gel matrixes vs solution; format: biochemical; conditions: ratio If/Io, matrix containing H152 GGBP-H6 NBD
[6] = ΔF of labeled GGBP entrapped in optimized GMSC sol-gel (96 well microplate); format: biochemical
Procedure: Entrapment Of Binding Proteins In GMSC Sol-Gels Containing Functionalized Silicone Additives (FSA) and Polymers. This example describes the addition of polymer and organic polyol additives to optimize the GMSC sol-gels for entrapping binding proteins to both maintain and enhance their spectral properties upon ligand binding. The binding proteins were labeled with a fluorophore (as described in example 3). The protein solutions were added during the final hydrolysis/gelling step described previously to produce final concentrations of 2-4 μM protein within the sol-gel. The polymer additives and FSA's were obtained from Sigma-Aldrich Chemicals (St. Louis, Mo.). Polymer additives were evaluated in amounts between 0 to about 30 wt. Functionalized silicone additives (FSA) were evaluated as additives to the GMSC sol-gels in amounts from 0 to about 0.6% mole ratio. Thus, rotary evaporation of the GMSC reagent to remove methanol from its storage solution was followed by reconstitution in water in a 1:1 ratio by weight. […] Fluorescence emission was measured with a Varian Cary Eclipse scanning fluorometer with microwell plate adapter (Varian Instruments, Victoria, Australia). Excitation was at 475 nm and emission recorded from 500 to 600 nm, typically monitoring emission maximum peak fluorescence. […]

[7] = GGBP L238C/A213C in dialysis membrane on fiber optic, reversibility of signal; format: biochemical; conditions: cycles between PBS buffer and 2 mM, 20 mM glucose; emission 521 nm; FIG. 4
Procedure: This example describes the immobilization of a biosensor of the instant invention into a dialysis membrane matrix and the ability of the matrix to provide reversible and continuous readings. Using a Varian Eclipse fluorimeter with a fiber optic attachment, GGBP L238C/A213C protein (2 μM in PBS buffer) entrapped within a dialysis membrane having a molecular cut-off of 3500 Daltons affixed to the distal end of the fiber. Solutions were prepared containing PBS buffer, 2 mM, and 20 mM glucose in PBS buffer. With the probe in PBS solution, readings were recorded at 0.02 seconds intervals of the emission wavelength 521 nm, followed by insertion of the fiber into the glucose solutions.

[8] = GGBP-H6 NBD, solution, measured at 0.1 μM [dye], read-out: Solution Kd
[9] = from 0 to 1 mM Glc at 0.5 μM [NBD]
[10] = protein in solution, read-out: Kd (mM) [solution value]

## E149C: GGBP-H6 NBD mutant, cysteine substituted for glutamic acid at position 149
[1]; [8]
  Kd: 0.2 µM
[2]; [9]
  Δ F(%): 300%

## wild type: wild type E. coli galactose/glucose binding protein (GGBP-H6), intrinsic fluorescence [reference compound]
[1]; [8]
  Kd: 0.2 µM

## K113C: GGBP-H6 NBD mutant, cysteine substituted for lysine at position 113
[2]; [9]
  Δ F(%): 15%

## D287C: GGBP-H6 NBD mutant, cysteine substituted for aspartic acid at position 287
[2]; [9]
  Δ F(%): 4%

## E149C, A213S, L238S: GGBP-H6 NBD triple mutant
[1]; [8]
  Kd: 470 µM
[2]; [9]
  Δ F(%): 480%

## K137C: GGBP-H6 NBD mutant, cysteine substituted for lysine at position 137
[1]; [8]
  Kd: 0.04 µM

## D14C: GGBP-H6 NBD mutant, cysteine substituted for aspartic acid at position 14
[2]; [9]
  Δ F(%): 1%

## E149C, A213R: GGBP-H6 NBD double mutant
[1]; [8]
  Kd: 1000 µM

## E149C, L238S: GGBP-H6 NBD double mutant
[1]; [8]
  Kd: 80 µM

## S112C, L238S: GGBP-H6 NBD double mutant
[2]; [9]
  Δ F(%): 6%

## V19C: GGBP-H6 NBD mutant, cysteine substituted for valine at position 19
[1]; [8]
  Kd: 0.1 µM

## E149C, N256S: GGBP-H6 NBD double mutant
[2]; [9]
  Δ F(%): 1%

## R292C: GGBP-H6 NBD mutant, cysteine substituted for arginine at position 292
[1]; [8]
  Kd: 0.8 µM

## L238C: GGBP-H6 NBD mutant, cysteine substituted for leucine at position 238
[2]; measured from 0 to 100 mM Glc
  Δ F(%): +3%

## N43C: GGBP-H6 NBD mutant, cysteine substituted for asparagine at position 43
[1]; [8]
  Kd: 0.2 µM
[2]; [9]
  Δ F(%): 40%

## H 152 C GGBP-NBD: glucose/galactose binding protein with cysteine at position 152, His6 tag, labeled with NBD
[3]
  Kd: 360 µM
[4]; SbQ-PVA UV cross-linked hydrogel
  Kd of the entrapped protein: comparable to that obtained in solution
[4]; SbQ-PVA hydrogel, 10 mM glucose challenge, FIG. 3
  response to the analyte (fluorescence) vs solution: equivalent to that obtained in solution
[1]; [10]
  Kd: 70 µM
[5]
  ΔF (10 mM Glucose): 1.53
[6]; sugar challenge 10 mM glucose
  ΔF (enhancement vs. solution): 2.93x

## H152C, A213S: GGBP-H6 NBD double mutant
[1]; [8]
  Kd: 160 µM
[2]; [9]
  Δ F(%): 100%

## Y107C: GGBP-H6 NBD mutant, cysteine substituted for tyrosine at position 107
[1]; [8]
  Kd: 1 µM

## K11C: GGBP-H6 NBD mutant, cysteine substituted for lysine at position 11
[2]; [9]
  Δ F(%): 10%

## E149C, A213R, L238S: GGBP-H6 NBD triple mutant
[1]; [8]
  Kd: 35000 µM
[2]; [9]
  Δ F(%): 500%

## G74C: GGBP-H6 NBD mutant, cysteine substituted for glycine at position 74
[1]; [8]
  Kd: 0.9 µM

## A213C, L238C: GGBP-H6 NBD double mutant, cysteines at positions 213 and 238
[3]
  Kd: 2200 µM
[1]; [8]
  Kd: 6000 µM
[1]; [10]
  Kd: 6000 µM
[2]; [9]
  Δ F(%): 24%
[2]; measured from 0 to 100 mM Glc
  Δ F(%): 67%
[7]
  reversibility of signal: return of initial signal
[6]; sugar challenge 100 mM glucose
  ΔF (enhancement vs. solution): 2.36x

B1: E149C, M182C, A213C, L238S: GGBP-H6 NBD mutant with four amino acid substitutions (protein, UniProt P0AEE5 24-332, looked up, variant E149C M182C A213C L238S)
D-galactose/methyl-galactoside …: ADTRIGVTIYKYDDNFMSVVRKAIEQDAKAAPDVQLLMNDSQNDQSKQNDQIDVLLAKGVKALAINLVDPAAAGTVIEKARGQNVPVVFFNKEPSRKALDSYDKAYYVGTDSKESGIIQGDLIAKHWAANQGWDLNKDGQIQFVLLKGCPGHPDAEARTTYVIKELNDKGIKTEQLQLDTACWDTAQAKDKMDAWLSGPNANKIEVVIANNDCMAMGAVEALKAHNKSSIPVFGVDASPEALALVKSGALAGTVLNDANNQAKATFDLAKNLADGKGAADGTNWKIDNKVVRVPYVGVDKDNLAEFSKK
modifications: His6 tag, NBD fluorophore label
notes: GGBP-H6 NBD mutant with four amino acid substitutions
[2]; [9]
  Δ F(%): 200%

From patent US7629172B2, “Entrapped binding protein as biosensors” (Becton, Dickinson and Company, priority 2002, dated 2009)
